Measured values as given in patent US4743585A (Warner-Lambert Company, priority 1986, dated 1988).
Where a name gives a salt, the structure may show the parent alone.

molecular target: T1, renin (Homo sapiens, UniProt P00797); experiment: in vitro renin inhibitory activity, standard radioimmunoassay for angiotensin I; assay type: biochemical
T1 sequence (P00797 67-406): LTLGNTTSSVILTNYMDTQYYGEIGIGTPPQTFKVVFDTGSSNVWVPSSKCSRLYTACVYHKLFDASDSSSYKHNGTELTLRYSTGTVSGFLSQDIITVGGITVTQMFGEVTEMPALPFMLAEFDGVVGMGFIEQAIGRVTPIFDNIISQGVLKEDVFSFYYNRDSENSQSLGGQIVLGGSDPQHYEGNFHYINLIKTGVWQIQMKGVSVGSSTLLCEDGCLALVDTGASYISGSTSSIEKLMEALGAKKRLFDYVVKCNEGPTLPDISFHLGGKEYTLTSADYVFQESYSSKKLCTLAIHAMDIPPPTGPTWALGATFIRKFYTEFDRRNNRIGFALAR
Description: The effectiveness of the aforementioned compounds is determined by a test for in vitro renin inhibitory activity. This activity is determined by a standard radioimmunoassay for angiotensin I. In this assay the enzyme, renin, incubated for two hours at 37° in the presence of a substrate, angiotensinogen, generates the product, angiotensin I. Test compounds are added to the incubation mixture.

Row | SMILES | IC50 [µM]
1 | CC(C)CC(=O)N[C@H](CN[C@H](C(=O)N[C@@H](CC(C)C)[C@@H](O)CC(=O)N[C@@H](C)C(=O)N[C@@H](CC(C)C)[C@@H](O)CC(=O)NCc1ccccc1)C(C)C)C(C)C (relative stereo) [Example 52, 5,8,11,16,19-pentaazatricosan-23-amide, 13,2-dihydroxy-2,17-dimethyl-6,9-bis(1-methylethyl)-12,20-bis(2-methylpropyl)-4,10,15,18-tetraoxo-N-(phenylmethyl)-,:6S-(6R*,9R*,12R*,13R*,17R*,20R*,21R*):-,acetate (salt) (2:3)] | 18
2 | CC(C)CC(NC(=O)CC(O)C(CC(C)C)NC(=O)CC(O)C(O)C(CC1CCCCC1)NC(=O)OC(C)(C)C)C(=O)NCc1ccccc1 (single isomer, unassigned) [Example 17, 15-(cyclohexylmethyl)-8,13,14-trihydroxy-4,9-bis(2-methylpropyl)-3,6,11-trioxo-1-phenyl-2,5,10,16-tetraazaheptadecan-17-oic acid, 1,1-dimethylethyl ester] | 6.5
3 | CC(C)C[C@H](NC(=O)C[C@H](O)[C@H](CC(C)C)NC(=O)C(Cc1c[nH]cn1)CC(O)[C@H](Cc1ccccc1)NC(=O)OC(C)(C)C)C(=O)NCc1ccccc1 (single isomer, unassigned) [Example 30, BOC-PHE[CHOHCH2 ]HIS-STA-LEU-NHCH2 Ph] | 30
4 | CC(C)CC(=O)N[C@@H](CC(C)C)C(=O)CC(Cc1ccccc1)C(=O)N[C@@H](CC(C)C)[C@@H](O)CC(=O)N[C@@H](CC(C)C)C(=O)NCc1ccccc1 (single isomer, unassigned) [Example 32] | 7.1
5 | CC(C)C[C@H](NC(=O)C/C=C/[C@H](Cc1ccccc1)NC(=O)OC(C)(C)C)[C@@H](O)CC(=O)N[C@@H](C)C(=O)N[C@@H](CC(C)C)[C@@H](O)CC(=O)NCc1ccccc1 [Example 1, [5S-[5R*,6R*,9R*,13R*,14R*(E),20R*]]-5,13-dihydroxy-9-methyl-6,14-bis(2-methylpropyl)-3,8,11,16-tetraoxo-1-phenyl-20-(phenylmethyl)-2,7,10,15,21-pentaazadocos-18-en-22-oic acid, 1,1-dimethylethyl ester] | 8.2
6 | CC(C)C[C@H](NC(=O)C(/C=C/[C@H](Cc1ccccc1)NC(=O)OC(C)(C)C)Cc1ccccc1)[C@@H](O)CC(=O)N[C@@H](C)C(=O)N[C@@H](CC(C)C)[C@@H](O)CC(=O)NCc1ccccc1 (some centres unmarked) [Example 2, (E)-5,13-dihydroxy-9-methyl-6,14-bis(2-methylpropyl)-3,8,11,16-tetraoxo-1-phenyl-17,20-bis(phenylmethyl)-2,7,10,15,21-pentaazadocos-18-en-22-oic acid, 1,1-dimethylethyl ester] | 12
7 | CC(C)C[C@H](NC(=O)C[C@H](O)[C@H](CC(C)C)NC(=O)C/C=C/[C@H](Cc1c[nH]c2ccccc12)NC(=O)OC(C)(C)C)C(=O)NCc1ccccc1 [Example 7, [4S-(4R*,8R*,9R*,13E,15R*)]-8-hydroxy-15-(1H-indol-3-ylmethyl)-4,9-bis(2-methylpropyl)-3,6,11-trioxo-1-phenyl-2,5,10-16-tetraazaheptadec-13-en-17-oic acid, 1,1-dimethylethyl ester] | 20
8 | CC(C)C[C@H](NC(=O)C[C@H](O)[C@H](CC1CCCCC1)NC(=O)C/C=C/[C@H](Cc1ccccc1)NC(=O)OC(C)(C)C)C(=O)NCc1cccc(CNC(=O)OCc2ccccc2)c1 [Example 8] | 8
9 | CC(C)C[C@H](NC(=O)C[C@H](O)[C@H](CC1CCCCC1)NC(=O)CC1OC1[C@H](Cc1ccccc1)NC(=O)OC(C)(C)C)C(=O)NCc1cccc(CNC(=O)OCc2ccccc2)c1 (some centres unmarked) [Example 13] | 2.6
10 | CC(C)CC(NC(=O)CC(O)C(CC(C)C)NC(=O)CC(O)C(O)C(Cc1c[nH]c2ccccc12)NC(=O)OC(C)(C)C)C(=O)NCc1ccccc1 (centres unmarked) [Example 18, 8,13,14-trihydroxy-15-(1H-indol-3-ylmethyl)-4,9-bis-(2-methylpropyl)-3,6,11-trioxo-1-phenyl-2,5,10,16-tetraazaheptadecan-17-oic acid, 1,1-dimethylethyl ester] | 2.3
11 | CC(C)CC(NC(=O)CC(O)C(CC(C)C)NC(=O)/C=C/C(O)C(Cc1ccccc1)NC(=O)OC(C)(C)C)C(=O)NCc1ccccc1 (centres unmarked) [Example 19, (E)-8,14-dihydroxy-4,9-bis(2-methylpropyl)-3,6,11-trioxo-1-phenyl-15-(phenylmethyl)-2,5,10,16-tetraazaheptadec-12-en-17-oic acid, 1,1-dimethylethyl ester] | 2.1
12 | CC(C)C[C@H](NC(=O)C[C@H](O)[C@H](CC1CCCCC1)NC(=O)/C=C/C(O)[C@H](Cc1ccccc1)NC(=O)OC(C)(C)C)C(=O)NCc1cccc(CNC(=O)OCc2ccccc2)c1 (some centres unmarked) [Example 21] | 0.47
13 | CC(C)C[C@H](NC(=O)C[C@H](O)[C@H](CC1CCCCC1)NC(=O)CCC(O)[C@H](Cc1ccccc1)NC(=O)OC(C)(C)C)C(=O)NCc1cccc(CN)c1 (some centres unmarked) [Example 24] | 0.022
14 | CC(C)CC(=O)N[C@@H](Cc1ccccc1)C(=O)N[C@@H](Cc1c[nH]cn1)C(=O)N[C@@H](CC1CCCCC1)C(O)CCC(=O)NCc1ccccc1 (stereo partly drawn) [Example 27, L-histidinamide,N-(3-methyl-1-oxobutyl)-L-phenylalanyl-N-[1-(cyclohexylmethyl)-2-hydroxy-5-oxo-5-[(phenylmethyl)amino]pentyl]] | 0.25
15 | CC(C)CC(=O)N[C@@H](Cc1ccccc1)C(=O)N[C@@H](Cc1c[nH]cn1)C(=O)N[C@@H](CC1CCCCC1)C(O)CCC(=O)N[C@@H](CC(C)C)C(=O)NCc1ccccc1 (some centres unmarked) [Example 28] | 0.014
16 | CC(C)C[C@H](NC(=O)C[C@H](O)[C@H](CC1CCCCC1)NC(=O)CCC[C@H](Cc1ccccc1)NC(=O)OC(C)(C)C)C(=O)NCc1cccc(CN)c1 [Example 36] | 63
17 | CC(C)CC(=O)NC(Cc1ccccc1)CS(=O)(=O)C(Cc1ccccc1)C(=O)NC(CC(C)C)C(O)CC(=O)NC(C)C(=O)NC(CC(C)C)C(O)CC(=O)NCc1ccccc1 (centres unmarked) [Example 38, 13,21-dihydroxy-2,17-dimethyl-12,20-bis(2-methylpropyl)-4,10,15,18-tetraoxo-N,6,9-tris(phenylmethyl)-8-thia-5,11,16,19-tetraazatricosan-23-amide-8,8-dioxide] | 1.5
18 | CC(C)CC(=O)NC(CSC(Cc1ccccc1)C(=O)NC(CC(C)C)C(O)CC(=O)NC(CC(C)C)C(=O)NCc1ccccc1)Cc1ccccc1 (centres unmarked) [Example 39, 6-hydroxy-17-methyl-2,7-bis(2-methylpropyl)-4,9,15-trioxo-N,10,13-tris(phenylmethyl)-11-thia-3,8,14-triazaoctadecanamide] | 30
19 | CC(C)CC(=O)NC(Cc1ccccc1)C[S+]([O-])C(Cc1ccccc1)C(=O)NC(CC(C)C)C(O)CC(=O)NC(C)C(=O)NC(CC(C)C)C(O)CC(=O)NCc1ccccc1 (centres unmarked) [Example 40, 13,21-dihydroxy-2,17-dimethyl-12,20-bis(2-methylpropyl)-4,10,15,18-tetraoxo-N,6,9-tris(phenylmethyl)-8-thia-5,11,16,19-tetraazatricosan-23-amide-8-oxide] | 2
20 | CC(C)CC(NC(=O)CC(O)C(CC(C)C)NC(=O)C(Cc1ccccc1)SCC(Cc1ccccc1)NC(=O)CCCC(=O)O)C(=O)NCc1ccccc1 (centres unmarked) [Example 44, 8-hydroxy-4,9-bis(2-methylpropyl)-3,6,11,17-tetraoxo-1-phenyl-12,15-bis(phenylmethyl)-13-thia-2,5,10,16-tetraazaheneicosan-21-oic acid] | 30
21 | CC(C)CC(=O)NC(CCCC(=O)NC(CC(C)C)C(O)CC(=O)NC(CC(C)C)C(=O)NCc1ccccc1)Cc1ccccc1 (centres unmarked) [Example 47, N-[2-hydroxy-4-[[3-methyl-1-[[(phenylmethyl)amino]carbonyl]butyl]amino]-1-(2-methylpropyl)-4-oxobutyl]-δ-[(3-methyl-1-oxobutyl)amino]benzenehexanamide] | 26
22 | CC(C)CC(NC(=O)CCC(=O)C(Cc1ccccc1)NC(=O)c1ccccc1)C(O)CC(=O)NC(C)C(=O)NC(CC(C)C)C(O)CC(=O)NCc1ccccc1 (centres unmarked) [Example 48] | 30
23 | CC(C)C[C@H](NC(=O)CCC(=O)C(Cc1ccccc1)NC(=O)OC(C)(C)C)[C@@H](O)CC(=O)N[C@@H](C)C(=O)N[C@@H](CC(C)C)[C@@H](O)CC(=O)NCc1ccccc1 (stereo partly drawn) [Example 50, 5,13-dihydroxy-9-methyl-6,14-bis(2-methylpropyl)-3,8,11,16,19-pentaoxo-1-phenyl-20-(phenylmethyl)-2,7,10,15,21-pentaazadocosan-22-oic acid, 1,1-dimethylethyl ester; (5S,7S,13S,14S,20RS)] | 30
24 | CC(C)CC(CC(=O)[C@H](CC1CCCCC1)NC(=O)OC(C)(C)C)C(=O)N[C@@H](CC(C)C)[C@@H](O)CC(=O)N[C@@H](CC(C)C)C(=O)NCc1ccccc1 (some centres unmarked) [Example 51] | 26
25 | CCOC(=O)C[C@H](O)[C@H](CC(C)C)NC(=O)[C@@H](NC[C@@H](NC(=O)CC(C)C)C(C)C)C(C)C [Example 53, Heptanoic acid, 3-hydroxy-6-methyl-4-[[3-methyl-2-[[3-methyl-2-[(3-methyl-1-oxobutyl)amino]butyl]amino]-1-oxobutyl]amino]-, ethyl ester, [3S-[3R*,- 4R*[R*[R*[(R*)]]]]-] | 28
26 | CC(C)CC(=O)N[C@H](CN[C@H](C(=O)N[C@@H](CC(C)C)[C@@H](O)CC(=O)NCc1ccccc1)C(C)C)C(C)C [Example 54, IVA-VAL[CH2 NH]VAL-STA-NHCH2 Ph] | 30
